Source: US5384406A, “Water-soluble biologically active ammonium salts” (ISP Investments Inc., priority 1993, dated 1995)
Like-named read-outs stand apart in the source and are kept apart here.

What was measured:
solubility in water = test: solubility in water
Method: Example 1 was repeated, except that 2 g of heavy water replaced 150 g of methanol solvent, 0.3 g of Dicamba replaced 30 g Dicamba and 0.16 g of AEP replaced 15.8 g of AEP.
(§1) In a 250 ml round bottom flask 15.5 g (0.482 millimole) of a commercial herbicide, imazaquin* (97.4% pure, having an average molecular weight of 311.4) was suspended in 100 g water. To the suspension, 6.1 g (0.469 millimole) of 98.5% pure AEP was added. […] 2-[4,5-dihydro-4-methyl-4-(methylethyl)-5-oxo-1H-imidazol-2-yl]-3-quinoline e carboxylic acid.
To a solution containing 13 g (0.1 mole) AEP (98.5% pure) dissolved in 30 g water in a 100 ml round bottom flask was added at 25° C. and with constant agitation, 16.9 g (0.1 mole) of water insoluble solid phosphonomethyl glycine.
To one liter of water was added 15.42 g of 2,4 D+7.11 g of mecoprop +1.83 g of 90% pure dicamba. After which 13.83 g AEP was added to the mixture. […] To the above solution was added 9 g of polyalkylene oxide modified by polydimethyl siloxane (Silvelt 7607 wetting agent) from Union Carbide. The mixture was stirred and the total weight was adjusted to 3000 g by adding water.

[1] = aqueous solution after filtration, not adjusted
Method: as §1

[2] = Method: A solution containing 25 g of the AEP salt of commercial imazaquin in water was prepared from a suspension of 25 g of imazaquin in 50 g water to which was added a stoichiometric amount of AEP (10.2 g) and an additional 15 g of water. The solution was stirred for 30 minutes after which it was filtered and the pH of the filtrate was adjusted to 7.2.
[3] = test system: broad leaf plants and perennial weeds; test: evaluation as aquatic herbicide and broad spectrum growth inhibitor, compared with the isopropyl amine salt of phosphonomethyl glycine; format: in vivo
Method: A suspension of 169 g of phosphonomethyl glycine in 301 g water was prepared and 130 g 98.5% pure AEP was added slowly with stirring until all of the phosphonomethyl glycine dissolved as the AEP salt. The resulting solution, (containing 28% of the active ingredient expressed as the free acid or 49.5% of the active ingredient expressed as the AEP salt) was evaluated as an aquatic herbicide and as a broad spectrum growth inhibitor for broad leaf plants and perennial weeds and compared with the isopropyl amine salt of phosphonomethyl glycine.

**Q.** Which “solubility in water (in words)” value (solubility in water; water) does the source give for `COc1c(Cl)ccc(Cl)c1C(=O)O.NCCN1CCCC1=O` [Example 1, N-pyrrolidonyl ethyl ammonium salt of 3,6-dichloro-l-methoxy benzoic acid] here?
**A.** easily dissolved in 60% water

**Q.** What about the “solubility in water (in words)” value (solubility in water; water, listed as Example 2) of the same compound?
**A.** easily solubilized in water

**Q.** With `CC(C)C1(C)N=C(c2nc3ccccc3cc2C(=O)O)NC1=O.NCCN1CCCC1=O` (stereo not shown) [Example 3, N-pyrrolidonyl ethyl ammonium salt of imazaquin] as the compound, how does the “pH of the filtrate” value [1] read?
**A.** 7.2

**Q.** And the “storage stability of solution” value ([2]; ambient conditions, stored for 6 months)?
**A.** stable under ambient conditions without any precipitation

**Q.** And the “precipitation after cooling and reheating” value ([2]; cooling to 0° C., then to room temperature)?
**A.** no precipitation was observed

**Q.** What about the “dissolution of freeze-dried solid in water” value (solubility in water; 0.1 g in 50 g of water) of the same compound?
**A.** dissolved completely

**Q.** Which results are given for `NCCN1CCCC1=O.O=C(O)CNCP(=O)(O)O` [Example 5, N-pyrrolidonyl ethyl ammonium salt of phosphonomethyl glycerine]?
**A.** kill [3]: significantly higher and more permanent kill; soluble in water (solubility in water; isolated AEP salt): more than 50%

**Q.** Which “solubility in water (in words)” value (solubility in water) does the source give for `COc1c(Cl)ccc(Cl)c1C(=O)O` [reference compound] here?
**A.** very poor solubility

**Q.** And the solubility (solubility in water; water)?
**A.** < 1000 µg/mL
